Test results published in article PMC9487510, “A Novel Oral GyrB/ParE Dual Binding Inhibitor Effective against Multidrug-Resistant Neisseria gonorrhoeae and Other High-Threat Pathogens” (Antimicrobial Agents and Chemotherapy, 2022).
Read-outs that look alike come from different tables or passages of the source.

Test system: N. gonorrhoeae clinical isolates
Experiment: MIC, agar dilution (CLSI)
Format: cell-based, Neisseria gonorrhoeae
Settings: for MIC: read-out: MIC

C=CC1=C(C(=O)O)N2C(=O)[C@@H](NC(=O)/C(=N\OCC(=O)O)c3csc(N)n3)[C@H]2SC1 [Cfx, cefixime]
0.5 µg/mL: MIC (Neisseria gonorrhoeae, strain CDC33 (GCREF2012 030))
0.063 µg/mL: MIC (Neisseria gonorrhoeae, strain CDC13 (GCREF2012 009)) | MIC (Neisseria gonorrhoeae, strain CDC18 (GCREF2012 014)) | MIC (Neisseria gonorrhoeae, strain CDC24 (GCREF2012 021)) | MIC (Neisseria gonorrhoeae, strain CDC26 (GCREF2012 023)) | MIC (Neisseria gonorrhoeae, strain CDC27 (GCREF2012 024)) | MIC (Neisseria gonorrhoeae, strain CDC34 (GCREF2012 031)) | MIC (Neisseria gonorrhoeae, strain CDC36 (GCREF2012 033)) | MIC (Neisseria gonorrhoeae, strain CDC38 (GCREF2012 035)) | MIC (Neisseria gonorrhoeae, strain CDC68 (GCREF2013 016)) | MIC (Neisseria gonorrhoeae, strain CDC69 (GCREF2013 017)) | MIC (Neisseria gonorrhoeae, strain CDC78 (GCREF2013 026))
0.125 µg/mL: MIC (Neisseria gonorrhoeae, strain CDC1 (GCREF2012 016)) | MIC (Neisseria gonorrhoeae, strain CDC2 (GCREF2012 045)) | MIC (Neisseria gonorrhoeae, strain CDC3 (GCREF2013 013)) | MIC (Neisseria gonorrhoeae, strain CDC4 (GCREF2013 030)) | MIC (Neisseria gonorrhoeae, strain CDC5 (GCREF2012 001)) | MIC (Neisseria gonorrhoeae, strain CDC8 (GCREF2012 004)) | MIC (Neisseria gonorrhoeae, strain CDC9 (GCREF2012 005)) | MIC (Neisseria gonorrhoeae, strain CDC10 (GCREF2012 006)) | MIC (Neisseria gonorrhoeae, strain CDC11 (GCREF2012 007)) | MIC (Neisseria gonorrhoeae, strain CDC19 (GCREF2012 015)) | MIC (Neisseria gonorrhoeae, strain CDC20 (GCREF2012 017)) | MIC (Neisseria gonorrhoeae, strain CDC23 (GCREF2012 020)) | MIC (Neisseria gonorrhoeae, strain CDC29 (GCREF2012 026)) | MIC (Neisseria gonorrhoeae, strain CDC30 (GCREF2012 027)) | MIC (Neisseria gonorrhoeae, strain CDC32 (GCREF2012 029)) | MIC (Neisseria gonorrhoeae, strain CDC37 (GCREF2012 034)) | MIC (Neisseria gonorrhoeae, strain CDC40 (GCREF2012 037)) | MIC (Neisseria gonorrhoeae, strain CDC46 (GCREF2012 043)) | MIC (Neisseria gonorrhoeae, strain CDC47 (GCREF2012 044)) | MIC (Neisseria gonorrhoeae, strain CDC48 (GCREF2012 046)) | MIC (Neisseria gonorrhoeae, strain CDC51 (GCREF2012 049)) | MIC (Neisseria gonorrhoeae, strain CDC55 (GCREF2013 001)) | MIC (Neisseria gonorrhoeae, strain CDC57 (GCREF2013 003)) | MIC (Neisseria gonorrhoeae, strain CDC60 (GCREF2013 005)) | MIC (Neisseria gonorrhoeae, strain CDC61 (GCREF2013 006)) | MIC (Neisseria gonorrhoeae, strain CDC63 (GCREF2013 008)) | MIC (Neisseria gonorrhoeae, strain CDC64 (GCREF2013 009)) | MIC (Neisseria gonorrhoeae, strain CDC65 (GCREF2013 010)) | MIC (Neisseria gonorrhoeae, strain CDC66 (GCREF2013 011)) | MIC (Neisseria gonorrhoeae, strain CDC67 (GCREF2013 014)) | MIC (Neisseria gonorrhoeae, strain CDC70 (GCREF2013 018)) | MIC (Neisseria gonorrhoeae, strain CDC73 (GCREF2013 021)) | MIC (Neisseria gonorrhoeae, strain CDC74 (GCREF2013 022)) | MIC (Neisseria gonorrhoeae, strain CDC75 (GCREF2013 023)) | MIC (Neisseria gonorrhoeae, strain CDC76 (GCREF2013 024)) | MIC (Neisseria gonorrhoeae, strain CDC77 (GCREF2013 025)) | MIC (Neisseria gonorrhoeae, strain CDC79 (GCREF2013 027)) | MIC (Neisseria gonorrhoeae, strain CDC80 (GCREF2013 028)) | MIC (Neisseria gonorrhoeae, strain CDC82 (GCREF2013 031)) | MIC (Neisseria gonorrhoeae, strain CDC83 (GCREF2013 032)) | MIC (Neisseria gonorrhoeae, strain CDC84 (GCREF2013 033)) | MIC (Neisseria gonorrhoeae, strain CDC86 (GCREF2013 035)) | MIC (Neisseria gonorrhoeae, strain CDC88 (GCREF2013 037)) | MIC (Neisseria gonorrhoeae, strain CDC89 (GCREF2013 038)) | MIC (Neisseria gonorrhoeae, strain CDC90 (GCREF2013 039)) | MIC (Neisseria gonorrhoeae, strain CDC92 (GCREF2013 041)) | MIC (Neisseria gonorrhoeae, strain CDC93 (GCREF2013 042)) | MIC (Neisseria gonorrhoeae, strain CDC94 (GCREF2013 043)) | MIC (Neisseria gonorrhoeae, strain CDC96 (GCREF2013 046)) | MIC (Neisseria gonorrhoeae, strain CDC97 (GCREF2013 047)) | MIC (Neisseria gonorrhoeae, strain CDC98 (GCREF2013 048)) | MIC (Neisseria gonorrhoeae, strain CDC99 (GCREF2013 012)) | MIC50 (Neisseria gonorrhoeae, 96 clinical isolates, read-out: MIC50)
0.031 µg/mL: MIC (Neisseria gonorrhoeae, strain CDC15 (GCREF2012 011)) | MIC (Neisseria gonorrhoeae, strain CDC22 (GCREF2012 019))
4 µg/mL: MIC (Neisseria gonorrhoeae, strain CDC16 (GCREF2012 012)) | MIC (Neisseria gonorrhoeae, strain CDC91 (GCREF2013 040))
0.016 µg/mL: MIC (Neisseria gonorrhoeae, strain CDC71 (GCREF2013 019))
0.016 to 4 µg/mL: MIC range (96 clinical isolates)
0.25 µg/mL: MIC (Neisseria gonorrhoeae, strain CDC6 (GCREF2012 002)) | MIC (Neisseria gonorrhoeae, strain CDC12 (GCREF2012 008)) | MIC (Neisseria gonorrhoeae, strain CDC14 (GCREF2012 010)) | MIC (Neisseria gonorrhoeae, strain CDC21 (GCREF2012 018)) | MIC (Neisseria gonorrhoeae, strain CDC25 (GCREF2012 022)) | MIC (Neisseria gonorrhoeae, strain CDC28 (GCREF2012 025)) | MIC (Neisseria gonorrhoeae, strain CDC31 (GCREF2012 028)) | MIC (Neisseria gonorrhoeae, strain CDC35 (GCREF2012 032)) | MIC (Neisseria gonorrhoeae, strain CDC39 (GCREF2012 036)) | MIC (Neisseria gonorrhoeae, strain CDC41 (GCREF2012 038)) | MIC (Neisseria gonorrhoeae, strain CDC42 (GCREF2012 039)) | MIC (Neisseria gonorrhoeae, strain CDC43 (GCREF2012 040)) | MIC (Neisseria gonorrhoeae, strain CDC45 (GCREF2012 042)) | MIC (Neisseria gonorrhoeae, strain CDC49 (GCREF2012 047)) | MIC (Neisseria gonorrhoeae, strain CDC50 (GCREF2012 048)) | MIC (Neisseria gonorrhoeae, strain CDC52 (GCREF2012 050)) | MIC (Neisseria gonorrhoeae, strain CDC53 (GCREF2012 051)) | MIC (Neisseria gonorrhoeae, strain CDC54 (GCREF2012 052)) | MIC (Neisseria gonorrhoeae, strain CDC56 (GCREF2013 002)) | MIC (Neisseria gonorrhoeae, strain CDC58 (GCREF2013 004)) | MIC (Neisseria gonorrhoeae, strain CDC59 (GCREF2013 044)) | MIC (Neisseria gonorrhoeae, strain CDC62 (GCREF2013 007)) | MIC (Neisseria gonorrhoeae, strain CDC72 (GCREF2013 020)) | MIC (Neisseria gonorrhoeae, strain CDC81 (GCREF2013 029)) | MIC (Neisseria gonorrhoeae, strain CDC87 (GCREF2013 036)) | MIC (Neisseria gonorrhoeae, strain CDC95 (GCREF2013 045)) | MIC (Neisseria gonorrhoeae, strain CDC100 (GCREF2013 015)) | MIC90 (Neisseria gonorrhoeae, 96 clinical isolates, read-out: MIC90)
